Measurements published in PubChem BioAssay (NCI).
Where “and” joins values, the source holds several entries; their conditions need not be identical. Equal values may be shown once.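 Assay format: 96-well plates, 48-hour exposure. Abbreviation: GI50, concentration required for 50% inhibition of growth. TGI: concentration producing complete growth inhibition.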

system: HOP-92 NSCLC; assay: NCI-60 cell line screen, 48 h

| SMILES | GI50 | TGI |
| --- | --- | --- |
| Nc1c(C(=O)Nc2ccccn2)sc2nc3c(cc12)C(=O)CCC3 | 27.7 µM | > 100 µM |
| Cc1nc2c(Br)cc(Br)cc2c(=O)n1-c1nnc(-c2cccc(Cl)c2Cl)c(N)n1 | 42.4 µM | > 100 µM |
| N#CC(I)CS(=O)(=O)c1ccccc1 (stereo not given) | 13.2 µM | 26.9 µM |
| COc1ccc2c(=O)oc3c(OC)cc(CCN(C)C)c4c(=O)oc1c2c34 | 21.5 µM and 8.25 µM | 39.6 µM and 15.2 µM |
| Cc1nc2sccn2c1-c1nc2sccn2c1/C=C1/C(=O)Nc2ccccc21 | 1.4 µM | 10.2 µM |
| Cc1cccc(NC2=C(Cl)C(=O)c3nc(C)ccc3C2=O)c1 | 1.66 µM | 3.27 µM |
| O=Cc1cc2c(cc1-c1cc3c(cc1C=O)OCO3)OCO2 | – | > 100 µM |
| C/C(=N\NC(N)=O)c1sc(-c2nc(C)c(/C(C)=N/NC(N)=O)s2)nc1C | – | > 100 µM |
| CCCCCCCCSC1=C(Cl)C(=O)C(OC)=C(OC)C1=O | – | 35.1 µM |
| COC(=O)c1c2c(c(C)[n+]([O-])c1C)C(=O)C(NCc1ccc(Br)cc1)=CC2=O | 3.07 µM | 7.15 µM |
| COc1cccc2c1O/C(=C\c1ccc([N+](=O)[O-])s1)C2=O | 1.18 µM | 3.42 µM |
| FC(F)(F)c1ccc2nc(NCc3ccccc3)c(-c3ccccc3)nc2c1 | – | 17.9 µM |
| COc1cc(C[P+](c2ccccc2)(c2ccccc2)c2ccccc2)cc(OC)c1OC | – | > 100 µM |
| CC(C)=CCC1=C(O)c2ccccc2C(=O)C1=O | – | > 100 µM |
| C=C(C)[C@@H]1CC[C@]2(CN)CC[C@]3(C)[C@H](CC[C@@H]4[C@@]5(C)CCCNC(C)(C)[C@@H]5CC[C@]43C)[C@@H]12 | 1.69 µM | 3.28 µM |
| CN1Nc2ccccc2CC1=O | – | > 100 µM |
| CCOc1ccc(OCC(=O)O)c2c1CCCC2=O | – | > 100 µM |
| CCCCCCCC(=O)OCC1OC(n2cc(F)c(=O)[nH]c2=O)C(N)C(OC(=O)CCCCCCC)C1O (stereo not given) | – | 34.3 µM |
| CCOc1ccc(NC(=O)CC2SC(=Nc3ccc(C)cc3C)NC2=O)cc1 (stereo not given) | – | > 100 µM |
| O=C(CNc1ccc(Cl)cc1Cl)Nn1c(-c2ccccc2)nc2ccccc2c1=O | – | 22.7 µM |
| C[C@H](CCOc1cccc(CC(=O)O)c1)N(Cc1cccc(C(F)(F)F)c1Cl)CC(c1ccccc1)c1ccccc1 | 3.21 µM | 16.5 µM |
| O=[N+]([O-])c1cccnc1N=Nc1c(O)[nH]c2ccccc12 | – | > 100 µM |
| CNc1cc2oc(=O)cc(C)c2cc1C | – | > 100 µM |
| CCN(CCNS(C)(=O)=O)c1ccc(N)c(C)c1 | 4.13 µM | 16.3 µM |
| NCCCn1c2c(c3ccc([N+](=O)[O-])cc3c1=O)C(=O)c1cc(I)ccc1-2 | 0.65 µM | 2.25 µM |

system: K-562 leukemia; assay: NCI-60 cell line screen, 48 h

| SMILES | GI50 [µM] | TGI [µM] |
| --- | --- | --- |
| Nc1c(C(=O)Nc2ccccn2)sc2nc3c(cc12)C(=O)CCC3 | 0.463 | > 100 |
| Cc1nc2c(Br)cc(Br)cc2c(=O)n1-c1nnc(-c2cccc(Cl)c2Cl)c(N)n1 | 3.4 | 22.6 |
| COc1ccc2c(=O)oc3c(OC)cc(CCN(C)C)c4c(=O)oc1c2c34 | – | 5.4 |
| COc1ccc(Cl)cc1NC(=O)c1ccc(NC2=C(Cl)C(=O)N(Cc3ccccc3)C2=O)cc1 | 6.87 | > 100 |
| Cc1nc2sccn2c1-c1nc2sccn2c1/C=C1/C(=O)Nc2ccccc21 | > 100 | > 100 |
| Cc1cccc(NC2=C(Cl)C(=O)c3nc(C)ccc3C2=O)c1 | 0.45 | > 100 |
| O=Cc1cc2c(cc1-c1cc3c(cc1C=O)OCO3)OCO2 | – | > 100 |
| C/C(=N\NC(N)=O)c1sc(-c2nc(C)c(/C(C)=N/NC(N)=O)s2)nc1C | – | > 100 |
| CN(C)CCNC(=O)Cc1ccccc1Nc1c(Cl)cccc1Cl | – | 37.5 |
| CCCCCCCCSC1=C(Cl)C(=O)C(OC)=C(OC)C1=O | – | > 100 |
| C[N+](C)(C)CC(=O)N/N=C(/Cc1cc(=O)oc2cc(O)ccc12)C(=O)Nc1ccc(Cl)cc1 | – | > 100 |
| COC(=O)c1c2c(c(C)[n+]([O-])c1C)C(=O)C(NCc1ccc(Br)cc1)=CC2=O | 2.38 | > 100 |
| COc1cccc2c1O/C(=C\c1ccc([N+](=O)[O-])s1)C2=O | 0.349 | 3.05 |
| O=S(=O)(OI(OI(OS(=O)(=O)C(F)(F)F)c1ccccc1)c1ccccc1)C(F)(F)F | – | > 100 |
| COc1cc(C[P+](c2ccccc2)(c2ccccc2)c2ccccc2)cc(OC)c1OC | – | > 100 |
| CC(C)=CCC1=C(O)c2ccccc2C(=O)C1=O | – | > 100 |
| CCCN(CCC)c1c([N+](=O)[O-])cc(C(=O)N(CC)CC)cc1[N+](=O)[O-] | – | > 100 |
| C=C(CN(C)Cc1ccccc1)c1ccc(NC(=O)c2ccc(C(=C)CN(C)Cc3ccccc3)cc2)cc1 | 45 | > 100 |
| CN1Nc2ccccc2CC1=O | – | > 100 |
| CCOc1ccc(NC(=O)CC2SC(=Nc3ccc(C)cc3C)NC2=O)cc1 (stereo not given) | – | > 100 |
| CCSc1nc(N=Cc2ccccc2O)c2cn[nH]c2n1 | 41.6 | > 100 |
| O=C(CNc1ccc(Cl)cc1Cl)Nn1c(-c2ccccc2)nc2ccccc2c1=O | – | 36.5 |
| CSC[C@H](NC(=O)COc1cccc2cnccc12)C(=O)NC(Cc1ccccc1)C(O)C(=O)N1CSC[C@H]1C(=O)NC(C)(C)C (stereo not given in full) | – | > 100 |
| C[C@H](CCOc1cccc(CC(=O)O)c1)N(Cc1cccc(C(F)(F)F)c1Cl)CC(c1ccccc1)c1ccccc1 | 4.9 | 52.9 |
| O=[N+]([O-])c1cccnc1N=Nc1c(O)[nH]c2ccccc12 | – | > 100 |
| CNc1cc2oc(=O)cc(C)c2cc1C | – | > 100 |
| O=C1C=C(Nc2ccc(Cl)cc2C(=O)c2ccccc2)c2ccccc2C1=O | – | > 100 |
| CCN(CCNS(C)(=O)=O)c1ccc(N)c(C)c1 | 3.39 | 18.4 |
| COc1ccc(NC(=O)CSc2nnc(-c3ccc(NC(C)=O)cc3)o2)cc1 | – | > 100 |
| NCCCn1c2c(c3ccc([N+](=O)[O-])cc3c1=O)C(=O)c1cc(I)ccc1-2 | < 0.0147 | 0.196 |

system: MALME-3M melanoma; assay: NCI-60 cell line screen, 48 h

| SMILES | GI50 | TGI |
| --- | --- | --- |
| Nc1c(C(=O)Nc2ccccn2)sc2nc3c(cc12)C(=O)CCC3 | 13.1 µM | > 100 µM |
| N#CC(I)CS(=O)(=O)c1ccccc1 (stereo not given) | 2.13 µM | 4.27 µM |
| COc1ccc2c(=O)oc3c(OC)cc(CCN(C)C)c4c(=O)oc1c2c34 | – | 28.5 µM |
| COc1ccc(Cl)cc1NC(=O)c1ccc(NC2=C(Cl)C(=O)N(Cc3ccccc3)C2=O)cc1 | > 100 µM | > 100 µM |
| Cc1nc2sccn2c1-c1nc2sccn2c1/C=C1/C(=O)Nc2ccccc21 | 3.26 µM | 70.5 µM |
| Cc1cccc(NC2=C(Cl)C(=O)c3nc(C)ccc3C2=O)c1 | 1.65 µM | 3.07 µM |
| O=Cc1cc2c(cc1-c1cc3c(cc1C=O)OCO3)OCO2 | – | > 100 µM |
| C/C(=N\NC(N)=O)c1sc(-c2nc(C)c(/C(C)=N/NC(N)=O)s2)nc1C | – | > 100 µM |
| CCCCCCCCSC1=C(Cl)C(=O)C(OC)=C(OC)C1=O | – | 21.8 µM |
| C[N+](C)(C)CC(=O)N/N=C(/Cc1cc(=O)oc2cc(O)ccc12)C(=O)Nc1ccc(Cl)cc1 | – | > 100 µM |
| COC(=O)c1c2c(c(C)[n+]([O-])c1C)C(=O)C(NCc1ccc(Br)cc1)=CC2=O | 0.243 µM | 0.8 µM |
| O=S(=O)(OI(OI(OS(=O)(=O)C(F)(F)F)c1ccccc1)c1ccccc1)C(F)(F)F | – | > 100 µM |
| FC(F)(F)c1ccc2nc(NCc3ccccc3)c(-c3ccccc3)nc2c1 | – | > 100 µM |
| COc1cc(C[P+](c2ccccc2)(c2ccccc2)c2ccccc2)cc(OC)c1OC | – | > 100 µM |
| CC(C)=CCC1=C(O)c2ccccc2C(=O)C1=O | > 100 µM and 35.1 µM and 20.4 µM | > 100 µM and 96.2 µM |
| C=C(C)[C@@H]1CC[C@]2(CN)CC[C@]3(C)[C@H](CC[C@@H]4[C@@]5(C)CCCNC(C)(C)[C@@H]5CC[C@]43C)[C@@H]12 | 1.75 µM | 3.63 µM |
| CCCN(CCC)c1c([N+](=O)[O-])cc(C(=O)N(CC)CC)cc1[N+](=O)[O-] | – | 40.5 µM |
| C=C(CN(C)Cc1ccccc1)c1ccc(NC(=O)c2ccc(C(=C)CN(C)Cc3ccccc3)cc2)cc1 | > 100 µM | > 100 µM |
| CN1Nc2ccccc2CC1=O | – | > 100 µM |
| CCOc1ccc(OCC(=O)O)c2c1CCCC2=O | – | > 100 µM |
| CCCCCCCC(=O)OCC1OC(n2cc(F)c(=O)[nH]c2=O)C(N)C(OC(=O)CCCCCCC)C1O (stereo not given) | – | 36.9 µM |
| CCOc1ccc(NC(=O)CC2SC(=Nc3ccc(C)cc3C)NC2=O)cc1 (stereo not given) | – | > 100 µM |
